Experimental findings from ChEMBL document CHEMBL1649267, “Molecular epidemiology and mechanisms of carbapenem resistance in Pseudomonas aeruginosa” (2009) are described below.

In brackets after ≈: the same amount, converted by molar mass.

What all share (type): functional
Test [1] concerns Pseudomonas aeruginosa. To be noted: isolate Paebeta-24.
Test [2] has as its system Pseudomonas aeruginosa. Conditions: isolate Paebeta-27.
The subject of test [3] is Pseudomonas aeruginosa. To be noted: isolate Paebeta-18.
In test [4] the test system is Pseudomonas aeruginosa. To be noted: isolate Paebeta-15.
Test [5] relates to Pseudomonas aeruginosa. To be noted: isolate Paebeta-03.

For orientation: MIC means the smallest concentration in the dilution series that meets the test's criterion for growth inhibition. Low readings indicate a more susceptible organism, high ones a less susceptible organism. With `CO/N=C(\C(=O)N[C@@H]1C(=O)N2C(C(=O)[O-])=C(C[N+]3(C)CCCC3)CS[C@H]12)c1csc(N)n1`, the MIC in the test with Pseudomonas aeruginosa [1] worked out at 64 µg/mL (≈ 133 µM); with Pseudomonas aeruginosa [2], 64 µg/mL (≈ 133 µM); in the test with Pseudomonas aeruginosa [3] it was 128 µg/mL (≈ 266 µM); against Pseudomonas aeruginosa [4], 128 µg/mL (≈ 266 µM); in the test on Pseudomonas aeruginosa [5], 64 µg/mL (≈ 133 µM).

On to `C[C@H]1[C@H](NC(=O)/C(=N\OC(C)(C)C(=O)O)c2csc(N)n2)C(=O)N1S(=O)(=O)O` [AZTREONAM], for which it took 128 µg/mL (≈ 294 µM) to inhibit growth against Pseudomonas aeruginosa [3] (MIC).
